Measurements taken from patent US20140323300A1, “HERBICIDAL COMPOUNDS” (SYNGENTA LIMITED, priority 2011, published 2014).

What was measured:
Assay type in all cases: in vivo
[1] = system: Amaranthus retoflexus (AMARE); assay: Pre-emergence glasshouse herbicide test; details: pre-emergence (sprayed after one day cultivation), 1000 g/h, evaluated after 13 days, five point scale
Method: (§1) Seeds of a variety of test species are sown in standard soil in pots (Alopecurus myosuroides (ALOMY), Setaria faberi (SETFA), Echinochloa crus-galli (ECHCG), Solanum nigrum (SOLNI), Amaranthus retoflexus (AMARE), Ipomoea hederacea (IPOHE)). After cultivation for one day (pre-emergence) or after 8 days cultivation (post-emergence) under controlled conditions in a glasshouse (at 24/16° C., day/night; 14 hours light; 65% humidity), the plants are sprayed with an aqueous spray solution derived from the formulation of the technical active ingredient in acetone/water (50:50) solution containing 0.5% Tween 20 (polyoxyethelyene sorbitan monolaurate, CAS RN 9005-64-5). Compounds are applied at 1000 g/h. The test plants are then grown in a glasshouse under controlled conditions in a glasshouse (at 24/16° C., day/night; 14 hours light; 65% humidity) and watered twice daily. After 13 days for pre and post-emergence, the test is evaluated for the percentage damage caused to the plant. The biological activities are shown in the following table on a five point scale (5=80-100%; 4=60-79%; 3=40-59%; 2=20-39%; 1=0-19%).

[2] = system: Echinochloa crus-galli (ECHCG); assay: Pre-emergence glasshouse herbicide test; details: pre-emergence (sprayed after one day cultivation), 1000 g/h, evaluated after 13 days, five point scale
Method: as §1

[3] = system: Solanum nigrum (SOLNI); assay: Pre-emergence glasshouse herbicide test; details: pre-emergence (sprayed after one day cultivation), 1000 g/h, evaluated after 13 days, five point scale
Method: as §1

[4] = system: Alopecurus myosuroides (ALOMY); assay: Pre-emergence glasshouse herbicide test; details: pre-emergence (sprayed after one day cultivation), 1000 g/h, evaluated after 13 days, five point scale
Method: as §1

[5] = system: Ipomoea hederacea (IPOHE); assay: Pre-emergence glasshouse herbicide test; details: pre-emergence (sprayed after one day cultivation), 1000 g/h, evaluated after 13 days, five point scale
Method: as §1

[6] = system: Setaria faberi (SETFA); assay: Pre-emergence glasshouse herbicide test; details: pre-emergence (sprayed after one day cultivation), 1000 g/h, evaluated after 13 days, five point scale
Method: as §1

[7] = system: Amaranthus retoflexus (AMARE); assay: Post-emergence glasshouse herbicide test; details: post-emergence (sprayed after 8 days cultivation), 1000 g/h, evaluated after 13 days, five point scale
Method: as §1

[8] = system: Echinochloa crus-galli (ECHCG); assay: Post-emergence glasshouse herbicide test; details: post-emergence (sprayed after 8 days cultivation), 1000 g/h, evaluated after 13 days, five point scale
Method: as §1

[9] = system: Solanum nigrum (SOLNI); assay: Post-emergence glasshouse herbicide test; details: post-emergence (sprayed after 8 days cultivation), 1000 g/h, evaluated after 13 days, five point scale
Method: as §1

[10] = system: Alopecurus myosuroides (ALOMY); assay: Post-emergence glasshouse herbicide test; details: post-emergence (sprayed after 8 days cultivation), 1000 g/h, evaluated after 13 days, five point scale
Method: as §1

[11] = system: Ipomoea hederacea (IPOHE); assay: Post-emergence glasshouse herbicide test; details: post-emergence (sprayed after 8 days cultivation), 1000 g/h, evaluated after 13 days, five point scale
Method: as §1

[12] = system: Setaria faberi (SETFA); assay: Post-emergence glasshouse herbicide test; details: post-emergence (sprayed after 8 days cultivation), 1000 g/h, evaluated after 13 days, five point scale
Method: as §1

Compound	percentage damage caused to the plant, PRE Application AMARE [1]	percentage damage caused to the plant, PRE Application ECHCG [2]	percentage damage caused to the plant, PRE Application SOLNI [3]	percentage damage caused to the plant, PRE Application ALOMY [4]	percentage damage caused to the plant, PRE Application IPOHE [5]	percentage damage caused to the plant, PRE Application SETFA [6]	percentage damage caused to the plant, POST Application AMARE [7]	percentage damage caused to the plant, POST Application ECHCG [8]	percentage damage caused to the plant, POST Application SOLNI [9]	percentage damage caused to the plant, POST Application ALOMY [10]	percentage damage caused to the plant, POST Application IPOHE [11]	percentage damage caused to the plant, POST Application SETFA [12]
Cc1cnn(-c2ccc(C(F)(F)F)nc2C)c(=O)c1O [Compound 1.020]	5 (5=80-100%)	5 (5=80-100%)	5 (5=80-100%)	3 (3=40-59%)	5 (5=80-100%)	5 (5=80-100%)	5 (5=80-100%)	5 (5=80-100%)	5 (5=80-100%)	3 (3=40-59%)	5 (5=80-100%)	5 (5=80-100%)
Cc1c(-n2ncc(Br)c(O)c2=O)ccc(S(C)(=O)=O)c1C1=NOCC1 [Compound 1.013]	5 (5=80-100%)	5 (5=80-100%)	5 (5=80-100%)	4 (4=60-79%)	4 (4=60-79%)	5 (5=80-100%)	5 (5=80-100%)	5 (5=80-100%)	5 (5=80-100%)	5 (5=80-100%)	5 (5=80-100%)	5 (5=80-100%)
COc1cnn(-c2ccc(C(F)(F)F)cc2C(F)(F)F)c(=O)c1O [Compound 1.014]	1 (1=0-19%)	1 (1=0-19%)	1 (1=0-19%)	1 (1=0-19%)	1 (1=0-19%)	1 (1=0-19%)	5 (5=80-100%)	1 (1=0-19%)	5 (5=80-100%)	1 (1=0-19%)	3 (3=40-59%)	4 (4=60-79%)
Cc1c(-n2ncc(Cl)c(O)c2=O)ccc(S(C)(=O)=O)c1C1=NOCC1 [Compound 1.004]	5 (5=80-100%)	5 (5=80-100%)	5 (5=80-100%)	5 (5=80-100%)	5 (5=80-100%)	5 (5=80-100%)	5 (5=80-100%)	5 (5=80-100%)	5 (5=80-100%)	5 (5=80-100%)	5 (5=80-100%)	5 (5=80-100%)
CSc1cnn(-c2ccc(Cl)cc2S(C)(=O)=O)c(=O)c1O [Compound 1.048]	4 (4=60-79%)	3 (3=40-59%)	4 (4=60-79%)	1 (1=0-19%)	3 (3=40-59%)	2 (2=20-39%)	4 (4=60-79%)	3 (3=40-59%)	4 (4=60-79%)	1 (1=0-19%)	3 (3=40-59%)	2 (2=20-39%)
Cc1c(-n2nccc(O)c2=O)ccc(S(C)(=O)=O)c1C1=NOCC1 [Compound 1.008]	5 (5=80-100%)	5 (5=80-100%)	5 (5=80-100%)	2 (2=20-39%)	5 (5=80-100%)	5 (5=80-100%)	5 (5=80-100%)	5 (5=80-100%)	5 (5=80-100%)	5 (5=80-100%)	5 (5=80-100%)	5 (5=80-100%)
C=C(C)c1cnn(-c2ccc(S(C)(=O)=O)c(C3=NOCC3)c2C)c(=O)c1O [Compound 1.007]	5 (5=80-100%)	5 (5=80-100%)	4 (4=60-79%)	3 (3=40-59%)	5 (5=80-100%)	3 (3=40-59%)	5 (5=80-100%)	5 (5=80-100%)	5 (5=80-100%)	5 (5=80-100%)	5 (5=80-100%)	5 (5=80-100%)
